# Test results reported in patent US7803930B2, “Antisense modulation of apolipoprotein B-expression” (Isis Pharmaceuticals, Inc., priority 2002, dated 2010).
# In the oligonucleotide strings, read from the 5' end, every base follows the letter of its sugar. An asterisk marks phosphorothioate; unmarked linkages are phosphodiester. Other units and linkages are bracketed, terminal groups are in braces. A string of capitals states the bases alone. e = 2'-O-(2-methoxyethyl) (MOE); [5mC] = 5-methylcytosine; d = 2'-deoxy (DNA)
# What was measured:
# [1] = system: human apolipoprotein B mRNA; experiment: Apolipoprotein B mRNA in primary human hepatocytes, real-time PCR; format: cell-based; conditions: for apolipoprotein B mRNA expression: 5, 10, 50 or 150 nM
# Protocol: In accordance with the present invention, antisense oligonucleotides targeted to human apolipoprotein B were tested in dose response studies in primary human hepatocytes. Pre-plated primary human hepatocytes were purchased from Invitro Technologies (Baltimore, Md.). Cells were cultured in high-glucose DMEM (Invitrogen Corporation, Carlsbad, Calif.) supplemented with 10% fetal bovine serum (Invitrogen Corporation, Carlsbad, Calif.), 100 units/mL and 100 μg/mL streptomycin (Invitrogen Corporation, Carlsbad, Calif.).
# Human primary hepatocytes were treated with ISIS 301012 (SEQ ID NO: 247) at 10, 50, 150 or 300 nM. Untreated cells and cells treated with the scrambled control oligonucleotide ISIS 113529 ([…], SEQ ID NO: 859) served as two groups of control cells. ISIS 113529 is a chimeric oligonucleotide (“gapmer”) 20 nucleotides in length, composed of a central “gap” region consisting of ten 2′-deoxynucleotides, which is flanked on both sides (5′ and 3′ directions) by five-nucleotide “wings”. The wings are composed of 2′-methoxyethyl (2′-MOE)nucleotides. The internucleoside (backbone) linkages are phosphorothioate (P═S) throughout the oligonucleotide. All cytidines are 5-methylcytidines.
# (§1) Oligonucleotides were introduced into cells through LIPOFECTIN-mediated transfection as described by other examples herein. Cells were harvested both 24 and 48 hours after treatment with oligonucleotide, and both RNA and protein were isolated. Additionally, the culture media from treated cells was collected for ELISA analysis of apolipoprotein B protein secretion.
# Apolipoprotein B mRNA expression was determined by real-time PCR of RNA samples as described by other examples herein. Each result represents 6 experiments.
# (§2) An additional experiment was performed to test the effects of ISIS 271009 (SEQ ID NO: 319), ISIS 281625 (SEQ ID NO: 224) and ISIS 301027 (SEQ ID NO: 262) on human apolipoprotein B mRNA in human primary hepatocytes. Cells were cultured as described herein and treated with 5, 10, 50 or 150 nM of ISIS 271009, ISIS 281625 or ISIS 301027 for a period of 24 hours. The control oligonucleotides ISIS 13650 (SEQ ID NO: 806) and ISIS 113529 (SEQ ID NO: 859) were used at 50 or 150 nM. Human apolipoprotein B mRNA expression was evaluated by real-time PCR as described by other examples herein. Apolipoprotein B protein secreted into the cultured cell media was measured in the samples treated with 50 and 150 nM of oligonucleotide, using a target protein specific ELISA kit (ALerCHEK Inc., Portland, Me.).
# apolipoprotein B protein = experiment: Apolipoprotein B protein secreted from primary human hepatocytes, ELISA; format: cell-based
# Protocol: as §1
# Apolipoprotein secreted from into the cultured cell media was measured in the samples treated with 50 and 150 nM of oligonucleotide, using a target protein specific ELISA kit (ALerCHEK Inc., Portland, Me.). Each result represents 3 experiments.
# as §2
# [2] = Toxicity in C57BL/6 mice, two weeks (Example 48): liver enzyme levels, body, liver and spleen weight; format: in vivo, mouse; parameters: Weight BODY / Weight LIVER / Weight SPLEEN: unit not given here; conditions: 25 mg/kg i.p. twice a week
# Protocol: C57BL/6 mice were divided into two groups—one group receiving oligonucleotide treatment and control animals receiving saline treatment. After overnight fasting, mice were dosed intraperitoneally twice a week with saline or 25 mg/kg of one of several oligonucleotides for two weeks. The antisense oligonucleotides used in the present study were ISIS 233172 (SEQ ID NO: 835) and ISIS 233175 (SEQ ID NO: 838), both targeted to rabbit apolipoprotein B, and ISIS 281625 (SEQ ID NO: 224), ISIS 301012 (SEQ ID NO: 247), and ISIS 301027 (SEQ ID NO: 262), targeted to human apolipoprotein B. At study termination and forty eight hours after the final injections, animals were sacrificed and evaluated for liver enzyme levels, body weight, liver weight, and spleen weight.
# [3] = system: human apolipoprotein B mRNA; experiment: Inhibition of apolipoprotein B mRNA by dsRNAs in HepG2 cells; format: cell-based; conditions: 150 nM with 3.75 μg/mL LIPOFECTIN
# Protocol: In accordance with the present invention, a series of nucleic acid duplexes comprising the antisense compounds of the present invention and their complements were designed to target apolipoprotein B and are shown in Table 42. All compounds in Table 42 are oligoribonucleotides 20 nucleotides in length with phosphodiester internucleoside linkages (backbones) throughout the compound. The compounds were prepared with blunt ends. […] These sequences are shown to contain uracil (U) but one of skill in the art will appreciate that uracil (U) is generally replaced by thymine (T) in DNA sequences. “Targer site” indicates the first (5′-most) nucleotide number on the particular target sequence to which the compound binds. A subset of the compounds in Table 42 are the RNA equivalents of DNA antisense oligonucleotides described herein, and, where applicable, this is noted by the ISIS # of the DNA oligonucleotide in the column “RNA equivalent of ISIS #”.
# The dsRNA compounds in Table 42 were tested for their effects on human apolipoprotein mRNA in HepG2 cells. HepG2 cells were treated with 100 nM of dsRNA compounds mixed with 5 μg/mL LIPOFECTIN (Invitrogen Corporation, Carlsbad, Calif.) for a period of 16 hours. In the same experiment, HepG2 cells were also treated with 150 nM of subset of the antisense oligonucleotides described herein mixed with 3.75 μg/mL LIPOFECTIN; these compounds are listed in Table 43. Control oligonucleotides included ISIS 18078 ([…], SEQ ID NO: 888). ISIS 18078 is a chimeric oligonucleotide (“gapmer”) 20 nucleotides in length, composed of a central “gap” region consisting of 9 2′-deoxynucleotides, which is flanked on the 5′ and 3′ ends by a five-nucleotide “wing” and a six-nucleotide “wing”, respectively. The wings are composed of 2′-methoxyethyl (2′-MOE)nucleotides. The internucleoside (backbone) linkages are phosphorothioate (P═S) throughout the oligonucleotide. All cytidines are 5-methylcytidines. The duplex of ISIS 263188 ([…], SEQ ID NO: 889) and its complement was also used as a control. ISIS 263188 is an oligoribonucleotide 21 nucleotides in length with the 2 nucleotides on the 3′ end being oligodeoxyribonucleotides (TT) and with phosphodiester internucleoside linkages (backbones) throughout the compound.
# Cells were treated for 4 hours, after which human apolipoprotein B mRNA expression was measured as described by examples herein. Results were normalized to untreated control cells, which were not treated with LIPOFECTIN or oligonucleotide.
# [4] = 5 nM, 24 hours, "+" = expression increased
# [5] = 150 nM, 24 hours, "+" = increased
substance,measurement,setting,value
113529 (antisense e[5mC]*eT*e[5mC]*eT*eT*dA*d[5mC]*dT*dG*dT*dG*d[5mC]*dT*dG*dT*eG*eG*eA*e[5mC]*eA) [compound 113529],% Inhibition of apolipoprotein B mRNA,"[1]; 150 nM, 24 hours",16%
same,% Inhibition of apolipoprotein B mRNA,"[1]; 150 nM, 48 hours",5%
same,% Inhibition of apolipoprotein B mRNA,"[1]; 300 nM, 24 hours",10%
same,% Inhibition of apolipoprotein B mRNA,"[1]; 300 nM, 48 hours",18%
same,% Change in apolipoprotein B protein secretion,"apolipoprotein B protein; 150 nM, 24 hours",+6%
same,% Change in apolipoprotein B protein secretion,"apolipoprotein B protein; 150 nM, 48 hours",+4%
281625 (antisense eA*eG*eG*eT*eT*dA*d[5mC]*d[5mC]*dA*dG*d[5mC]*d[5mC]*dA*d[5mC]*dA*eT*eG*e[5mC]*eA*eG) [compound 281625],Liver Enzymes ALT,[2],36.2 IU/L
same,Liver Enzymes AST,[2],89.5 IU/L
same,Weight BODY,[2],20.9
same,Weight LIVER,[2],1.2
same,Weight SPLEEN,[2],0.1
same,% Inhibition of apolipoprotein B mRNA,[3],79%
301012 (eG*e[5mC]*e[5mC]*eT*e[5mC]*dA*dG*dT*d[5mC]*dT*dG*d[5mC]*dT*dT*d[5mC]*eG*e[5mC]*eA*e[5mC]*e[5mC]) [compound 301012],Liver Enzymes ALT,[2],21.2 IU/L
same,Liver Enzymes AST,[2],50.6 IU/L
same,Weight BODY,[2],21.3
same,Weight LIVER,[2],1.1
same,Weight SPLEEN,[2],0.1
same,% Inhibition of apolipoprotein B mRNA,"[1]; 10 nM, 24 hours",65%
same,% Inhibition of apolipoprotein B mRNA,"[1]; 10 nM, 48 hours",33%
same,% Inhibition of apolipoprotein B mRNA,"[1]; 50 nM, 24 hours",75%
same,% Inhibition of apolipoprotein B mRNA,"[1]; 50 nM, 48 hours",48%
same,% Inhibition of apolipoprotein B mRNA,"[1]; 150 nM, 24 hours",90%
same,% Inhibition of apolipoprotein B mRNA,"[1]; 150 nM, 48 hours",78%
same,% Inhibition of apolipoprotein B mRNA,"[1]; 300 nM, 24 hours",89%
same,% Inhibition of apolipoprotein B mRNA,"[1]; 300 nM, 48 hours",72%
same,% Change in apolipoprotein B protein secretion,"apolipoprotein B protein; 150 nM, 24 hours",−57%
same,% Change in apolipoprotein B protein secretion,"apolipoprotein B protein; 150 nM, 48 hours",−75%
same,% Inhibition of apolipoprotein B mRNA,[3],77%
301027 (eG*e[5mC]*eT*e[5mC]*eA*d[5mC]*dT*dG*dT*dA*dT*dG*dG*dT*dT*eT*eT*eA*eT*e[5mC]; antisense) [compound 301027],Liver Enzymes ALT,[2],221.3 IU/L
same,Liver Enzymes AST,[2],455.3 IU/L
same,Weight BODY,[2],21.2
same,Weight LIVER,[2],1.3
same,Weight SPLEEN,[2],0.1
same,% Inhibition of apolipoprotein B mRNA,[3],79%
"ISIS 281625: SEQ ID NO: 224, 2′-MOE gapmer targeted to human apolipoprotein B (antisense eA*eG*eG*eT*eT*dA*d[5mC]*d[5mC]*dA*dG*d[5mC]*d[5mC]*dA*d[5mC]*dA*eT*eG*e[5mC]*eA*eG)",% Inhibition of apolipoprotein B mRNA expression,[1]; [4],8%
same,% Inhibition of apolipoprotein B mRNA expression,"[1]; 10 nM, 24 hours (Table 37)",22%
same,% Inhibition of apolipoprotein B mRNA expression,"[1]; 50 nM, 24 hours (Table 37)",49%
same,% Inhibition of apolipoprotein B mRNA expression,"[1]; 150 nM, 24 hours (Table 37)",52%
same,apolipoprotein B mRNA expression,[1]; 24 hours,inhibit apolipoprotein B mRNA expression in a dose-dependent manner
same,% Inhibition of apolipoprotein B protein secretion,"apolipoprotein B protein; 50 nM, 24 hours",18%
same,% Inhibition of apolipoprotein B protein secretion,apolipoprotein B protein; [5],18%
"ISIS 301012: SEQ ID NO: 247, antisense oligonucleotide targeted to human apolipoprotein B (antisense GCCTCAGTCTGCTTCGCACC; chemistry not given here)",apolipoprotein B expression (mRNA),"[1]; 10, 50, 150 or 300 nM, 24 and 48 hours",inhibits apolipoprotein B expression in a dose-dependent manner
"ISIS 301027: SEQ ID NO: 262, 2′-MOE gapmer targeted to human apolipoprotein B (antisense eG*e[5mC]*eT*e[5mC]*eA*d[5mC]*dT*dG*dT*dA*dT*dG*dG*dT*dT*eT*eT*eA*eT*e[5mC])",levels of liver enzymes relative to saline treatment,[2],drastically increased
same,% Inhibition of apolipoprotein B mRNA expression,[1]; [4],11%
same,% Inhibition of apolipoprotein B mRNA expression,"[1]; 10 nM, 24 hours (Table 37)",37%
same,% Inhibition of apolipoprotein B mRNA expression,"[1]; 50 nM, 24 hours (Table 37)",50%
same,% Inhibition of apolipoprotein B mRNA expression,"[1]; 150 nM, 24 hours (Table 37)",70%
same,apolipoprotein B mRNA expression,[1]; 24 hours,inhibit apolipoprotein B mRNA expression in a dose-dependent manner
same,% Inhibition of apolipoprotein B protein secretion,"apolipoprotein B protein; 50 nM, 24 hours",21%
same,% Inhibition of apolipoprotein B protein secretion,apolipoprotein B protein; [5],32%
same,secretion of apolipoprotein B protein from cells (ELISA),apolipoprotein B protein; 50 and 150 nM,inhibit the secretion of apolipoprotein B protein from cells in a dose-dependent manner
